Active and inactive are the calls of the source. Rule as the data show it: actives have a measured IC50 and inactives only a lower limit.
target: Envelope glycoprotein gp160 (Human immunodeficiency virus 1, UniProt Q6QLK5); assay: cell-free HIV fusion peptide-binding blockers – biochemical, uHTS, fluorescence dequenching, […] (AID 1986)
Sequence (Q6QLK5 whole entry, the tested form may be a part): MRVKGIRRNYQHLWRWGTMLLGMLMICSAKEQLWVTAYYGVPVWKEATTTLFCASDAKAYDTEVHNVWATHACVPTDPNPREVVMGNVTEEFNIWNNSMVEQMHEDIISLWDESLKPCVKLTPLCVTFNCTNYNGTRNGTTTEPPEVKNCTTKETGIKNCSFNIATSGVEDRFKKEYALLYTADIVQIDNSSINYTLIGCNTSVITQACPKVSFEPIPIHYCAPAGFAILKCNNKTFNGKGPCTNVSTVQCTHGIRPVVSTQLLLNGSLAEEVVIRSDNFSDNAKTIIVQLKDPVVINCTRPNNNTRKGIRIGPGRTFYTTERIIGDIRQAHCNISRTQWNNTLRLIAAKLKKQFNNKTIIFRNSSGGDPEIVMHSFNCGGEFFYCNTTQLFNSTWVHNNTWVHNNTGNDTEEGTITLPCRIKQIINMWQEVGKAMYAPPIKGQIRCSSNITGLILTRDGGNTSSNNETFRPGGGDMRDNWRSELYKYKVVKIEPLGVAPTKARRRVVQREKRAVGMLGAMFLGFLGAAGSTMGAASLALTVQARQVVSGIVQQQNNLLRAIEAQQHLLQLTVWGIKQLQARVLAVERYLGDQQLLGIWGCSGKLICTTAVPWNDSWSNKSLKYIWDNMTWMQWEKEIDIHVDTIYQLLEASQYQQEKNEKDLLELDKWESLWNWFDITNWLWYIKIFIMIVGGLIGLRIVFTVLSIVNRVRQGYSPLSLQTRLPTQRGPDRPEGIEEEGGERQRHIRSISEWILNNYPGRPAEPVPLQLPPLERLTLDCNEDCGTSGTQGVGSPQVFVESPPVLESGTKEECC

SMILES	IC50
O=C(O)c1ccc(-c2ccc(/C=C3\NC(=O)N(Cc4ccc(Cl)cc4)C3=O)o2)cc1Cl	10.7 µM (active)
Cc1cc(N2C(=O)C(O)=C(C(=O)c3ccc(C)o3)C2c2cccc(Oc3ccccc3)c2)no1 (stereo not given)	24.1 µM (active)
Cc1cc(N2C(=O)C(O)=C(C(=O)c3cc4ccccc4o3)C2c2ccc(Cl)cc2)no1 (stereo not given)	15.9 µM (active)
CCOC(=O)c1sc(N2C(=O)C(O)=C(C(=O)c3ccc(C)o3)C2c2cccc([N+](=O)[O-])c2)nc1C (stereo not given)	17.6 µM (active)
COc1cccc(C2C3=C(N=c4s/c(=C\c5ccc(OCC(=O)O)cc5)c(=O)n42)c2ccccc2CC3)c1 (stereo not given)	18.6 µM (active)
